Data on one compound can be found in US20240327446A1, “DEUTERATED NUCLEOSIDE COMPOUNDS AND USE THEREOF” (MEDSHINE DISCOVERY INC., priority 2022, published 2024).

Data set [1] concerns human coronavirus (HCoV) 229E. As to the kind of experiment: In vitro anti-coronavirus activity test, cytopathic effect (CPE) assay. It counts as cell-based, human coronavirus (HCoV) 229E in MRC5 cells. The following applies: MRC5, 72 h, read-out: EC50 (median effective concentration). How it is done: (§1) To detect the in vitro anti-human coronavirus (HCOV) 229E activity of the compound using the cytopathic effect (CPE) assay, and simultaneously evaluate the cytotoxicity of the compound.
(§2) The test compound was prepared as a 20 mM stock solution using DMSO. The initial testing concentration of the test compound was 50 μM, tested at 8 concentrations with 4-fold gradient dilutions, in duplicate wells. The control compound Remdesivir would be provided by WuXi AppTec. Remdesivir would be tested at 8 concentrations with 3-fold gradient dilutions, in duplicate wells.
(§3) MRC5 cells and coronavirus HCoV 229E were purchased from ATCC. MRC5 cells were cultured in EMEM (Sigma) culture medium supplemented with 10% fetal bovine serum (Excell), 1% double antibiotic (Hyclone), 1% L-glutamine (Gibco), and 1% non-essential amino acids (Gibco). […]
(§4) Cells were seeded in a 96-well microplate at a specific density (Table 1) and cultured overnight in a 5% CO2, 37° C. incubator. […] Cell viability was detected using the CellTiter Glo (Promega) cell viability assay kit. […]
Inhibition rate (%)=(test well reading value−average value of virus control)/(average value of cell control−average value of virus control)×100 […]

Another data set can be described thus: in vitro. Particulars: human. It counts as cell-based. The protocol:
as §1, §2, §3, §4
Cell viability (%)=(test well reading value−average value of culture medium control)/(average value of cell control−average value of culture medium control)×100 […]

By CC50 is commonly meant the concentration giving 50% cytotoxicity.

Take `[2H][C@@]1(O)[C@H](O)[C@@H](COC(=O)C(C)C)O[C@@]1(C#N)c1ccc2c(N)ncnn12` [Compound 1]: the EC50 in data set [1] was determined as 220 nM. In the data set “in vitro”, this compound returned a CC50 at 3 days of more than 50000 nM.
